Laboratory results taken from patent publication US8940498B2, “Biological assays for the characterization of cells using single-cell tracking and uses thereof” (priority 2012, dated 2015).
Like-named read-outs stand apart in the source and are kept apart here.

Columns and labels:
[1] = test system: HeLa cells; assay: Classical clonogenic end-point assay; format: cell-based; conditions: 0.25 μM for 30 min
[2] = test system: HeLa cells; conditions: for Average CQI: CQI Formula 1
[3] = test system: HeLa cells; assay: cells; conditions: Homo sapiens, read-out: Average CQI, % of control
[4] = HeLa cells, 0.25 μM, normalized by 200 progenitors
[5] = exposure to non-cytotoxic doses

With `CC[C@@]1(O)C(=O)OCc2c1cc1n(c2=O)Cc2cc3ccccc3nc2-1` [CPT, camptothecin] the cell survival [1] was 95%, the “Average CQI” value ([2]; HeLa cells, 0.1 μM) was 9.3 and the “CQI (Formula 2)” value ([2]; HeLa cells, 0.25 μM) was 0.026. For the same molecule, the “total MD versus control” value ([2]; HeLa cells, 0.25 μM) was “reduced”, the “Average CQI” value ([2]; HeLa cells, 0.25 μM) was 6.2 and the “DD (number of dipolar division events)” value [2, 4] was 1059 ± 95. For the same molecule, the “MD (multipolar division, TD+QD+HD)” value [2, 4] was 27.0 ± 4.5, the “QD (number of quadripolar division events)” value [2, 4] was 4.0 ± 1.2 and the “TD (number of tripolar division events)” value [2, 4] was 23.0 ± 3.2. The “Total DV (total cell division, DD+TD+QD+HD)” value [2, 4] was 1086 ± 9.7, the “Average CQI” value ([2]; HeLa cells, 1 μM) was 1.8 and the “CD induction and cell growth suppression” value ([2]; HeLa cells, at non-cytotoxic dose (0.1 μM CPT, 1 μM MNNG)) was “neither CD induction nor cell growth suppression”. It also gave a non-cytotoxic dose ([2]; HeLa cells, by average CQI) of 0.1 µM, a sub-cytotoxic dose ([2]; HeLa cells, by average CQI) of 0.25 µM and an activity at 0.1 µM [3] of 102%. For the same molecule, the activity at 0.25 µM [3] was 60% and the activity at 1 µM [3] was 22%.
In the case of `CC(=O)Nc1ccc(O)cc1` [acetaminophen], the “frequency of cells entering MD versus control cell populations” value [2] is reported as “not observed”.
With `[Cd]` [cadmium] the “frequency of cells entering MD versus control cell populations” value [2, 5] was “more frequently found than control cell populations”.
`C=O` [formaldehyde] was tested, and the “frequency of cells entering MD versus control cell populations” value [2] was “more frequently found than control cell populations” and the non-cytotoxic dose ([2]; human) was 0.002 to 0.18 µM.
With `CC(C)Cc1ccc(C(C)C(=O)O)cc1` (centres unmarked) [ibuprofen] the “frequency of cells entering MD versus control cell populations” value [2, 5] was “not observed”.
In the case of arsenic acid, the “frequency of cells entering MD versus control cell populations” value [2, 5] is reported as “more frequently found than control cell populations”.
